In experiment [1] the target is Histone deacetylase. As to the kind of experiment: Inhibition of HDAC in human A2780 cells using Boc-Lys(epsilon-Ac)-AMC as substrate preincubated for 18 hrs followed by substrate addition and further incubation for 3 hrs by microplate reader based fluorescence assay. Format: cell-based.
Another experiment has as its system CAL-27. Nature of the experiment: Antiproliferative activity against human CAL27 cells after 72 hrs by microplate reader based MTT assay. Format: functional, cell-based. Conditions: CAL-27, 72 h.
A further experiment concerns A2780. Nature of the experiment: Antiproliferative activity against human A2780 cells after 72 hrs by microplate reader based MTT assay. Format: functional, cell-based. Conditions: A2780, 72 h.
For experiment [2], the target named is Histone deacetylase. As to the kind of experiment: Inhibition of HDAC in human CAL27 cells using Boc-Lys(epsilon-Ac)-AMC as substrate preincubated for 18 hrs followed by substrate addition and further incubation for 3 hrs by microplate reader based fluorescence assay. Format: cell-based.

We go through 16 molecules from ChEMBL document CHEMBL4396934, “Novel α,β-unsaturated hydroxamic acid derivatives overcome cisplatin resistance” (Bioorg Med Chem, 2019).

Consider `CCNC(=O)NOCc1ccc(/C=C/C(=O)NO)cc1`, for which the IC50 against Histone deacetylase [1] came out at 6.85 µM; with CAL-27 it was 14 µM; in the experiment on A2780 it was 35.4 µM; at Histone deacetylase [2], 14.2 µM.

As to `O=C(/C=C/c1ccc(CONC(=O)Nc2ccccc2)cc1)NO`, the IC50 was 190 µM against Histone deacetylase [1], 62 µM in the experiment on CAL-27, 112 µM with A2780 and 144 µM at Histone deacetylase [2].

In the case of `O=C(/C=C/c1ccc(CONC(=O)c2ccc3ccccc3c2)cc1)NO`, the half-maximal inhibitory concentration (IC50) at Histone deacetylase [1] was found to be 1.92 µM; with CAL-27, 3.65 µM; in the experiment on A2780 it was 3.11 µM; against Histone deacetylase [2], 2.83 µM.

Consider `Cc1[nH]c2ccccc2c1CCNCc1ccc(/C=C/C(=O)NO)cc1` [PANOBINOSTAT], for which the IC50 with CAL-27 turned out to be 0.0109 µM; in the experiment with A2780 it was 0.0548 µM.

On to `CCCCOc1ccc(C(=O)NOCc2ccc(/C=C/C(=O)NO)cc2)cc1`, for which the IC50 was determined as 7.6 µM against Histone deacetylase [1], 4.55 µM in the experiment on CAL-27, 1.7 µM in the experiment with A2780 and 3 µM against Histone deacetylase [2].

For `O=C(/C=C/c1ccc(CONC(=O)Nc2ccccc2-c2ccccc2)cc1)NO`, the half-maximal inhibitory concentration (IC50) against Histone deacetylase [1] came out at 4.03 µM; with CAL-27 it was 2.62 µM; in the experiment on A2780, 3.57 µM; on Histone deacetylase [2], 5.65 µM.

With `Cc1cc(C)c(NC(=O)NOCc2ccc(/C=C/C(=O)NO)cc2)c(C)c1`, the half-inhibitory concentration (IC50) worked out at 2.29 µM on Histone deacetylase [1], 3.49 µM with CAL-27, 3.39 µM in the experiment with A2780 and 4.21 µM on Histone deacetylase [2].

Regarding `Cc1[nH]c2ccccc2c1CC(=O)NOCc1ccc(/C=C/C(=O)NO)cc1`, the half-maximal inhibitory concentration (IC50) against Histone deacetylase [1] worked out at 1.12 µM; with CAL-27 it was 5.25 µM; with A2780 it was 14 µM; against Histone deacetylase [2] it was 2.65 µM.

On to `COc1cc(C(=O)NOCc2ccc(/C=C/C(=O)NO)cc2)cc(OC)c1OC`, for which the IC50 against Histone deacetylase [1] was determined as 6.85 µM; in the experiment with CAL-27 it was 8.94 µM; in the experiment with A2780 it was 38.6 µM; against Histone deacetylase [2], 3.14 µM.

As to `Cc1cc(C)cc(C(=O)NOCc2ccc(/C=C/C(=O)NO)cc2)c1`, the half-inhibitory concentration (IC50) is 0.9 µM against Histone deacetylase [1], 2.24 µM with CAL-27, 2.33 µM in the experiment on A2780 and 1.09 µM against Histone deacetylase [2].

For `CC(C(=O)NOCc1ccc(/C=C/C(=O)NO)cc1)(c1ccccc1)c1ccccc1`, the IC50 amounted to 3.34 µM against Histone deacetylase [1], 5.71 µM with CAL-27, 4.55 µM in the experiment on A2780 and 4.81 µM on Histone deacetylase [2].

As for `O=C(/C=C/c1ccc(CONC(=O)c2ccccc2)cc1)NO`, the concentration for half-maximal inhibition (IC50) against Histone deacetylase [1] turned out to be 0.94 µM; in the experiment with CAL-27, 2.99 µM; in the experiment with A2780, 2.08 µM; against Histone deacetylase [2], 1.16 µM.

For the molecule `O=C(/C=C/c1ccc(CONC(=O)c2nccc3ccccc23)cc1)NO`, the concentration for half-maximal inhibition (IC50) was 1.98 µM against Histone deacetylase [1], 4.21 µM in the experiment with CAL-27, 3.15 µM in the experiment on A2780 and 4.48 µM on Histone deacetylase [2].

Take `Cc1cc(C)cc(NC(=O)NOCc2ccc(/C=C/C(=O)NO)cc2)c1`: the IC50 against Histone deacetylase [1] amounted to 1.54 µM; in the experiment on CAL-27 it was 2.27 µM; with A2780, 2.01 µM; on Histone deacetylase [2], 1.12 µM.

As for `O=C(/C=C/c1ccc(CONC(=O)Nc2cccc3ccccc23)cc1)NO`, the concentration for half-maximal inhibition (IC50) is 43.2 µM on Histone deacetylase [1], 34.1 µM in the experiment with CAL-27, 38.9 µM with A2780 and 40.3 µM against Histone deacetylase [2].

Consider `O=C(/C=C/c1ccc(CONC(=O)c2csc(-c3ccccc3)n2)cc1)NO`, for which the IC50 worked out at 19.2 µM on Histone deacetylase [1], 16.3 µM in the experiment with CAL-27, 2.02 µM in the experiment with A2780 and 11.6 µM against Histone deacetylase [2].
